We go through 13 molecules from BindingDB's records for doi:10.7270/Q2Q81BH4 (Nmmlsc, 2009).

The structures appear in SMILES notation. Some results are limits rather than exact numbers.

One experiment has as its target T1, Mitogen-activated protein kinase kinase kinase 3 (Homo sapiens, UniProt Q99759).
T1 sequence (Q99759 whole entry): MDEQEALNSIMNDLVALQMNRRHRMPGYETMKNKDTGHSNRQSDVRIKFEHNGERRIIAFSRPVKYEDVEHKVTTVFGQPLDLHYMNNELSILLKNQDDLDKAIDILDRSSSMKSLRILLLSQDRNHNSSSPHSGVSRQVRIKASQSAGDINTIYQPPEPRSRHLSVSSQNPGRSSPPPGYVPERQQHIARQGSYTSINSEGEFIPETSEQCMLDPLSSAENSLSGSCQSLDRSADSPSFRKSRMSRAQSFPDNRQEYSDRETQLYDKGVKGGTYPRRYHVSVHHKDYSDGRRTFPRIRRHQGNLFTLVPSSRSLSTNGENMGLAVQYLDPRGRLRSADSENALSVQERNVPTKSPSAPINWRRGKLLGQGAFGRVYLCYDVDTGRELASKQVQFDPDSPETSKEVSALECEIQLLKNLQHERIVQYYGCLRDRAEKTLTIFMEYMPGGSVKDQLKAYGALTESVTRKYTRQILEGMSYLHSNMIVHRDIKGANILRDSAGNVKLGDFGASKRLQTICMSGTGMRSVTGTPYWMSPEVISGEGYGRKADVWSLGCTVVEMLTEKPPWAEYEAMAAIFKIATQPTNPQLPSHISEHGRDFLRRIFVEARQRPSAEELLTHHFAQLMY
The experiment in a line: inhibitors of MEK5 binding to MEKK3, SAR follow-up, multiplex assay, wild-type MEKK3 (AID 2145).
Conditions: not given
`COc1cc([N+](=O)[O-])ccc1-c1nn2c(-c3ccco3)nnc2s1` [3-(2-furanyl)-6-(2-methoxy-4-nitrophenyl)-[1,2,4]triazolo[3,4-b][1,3,4]thiadiazole] displayed an EC50 of more than 30 µM.
Same read-out and setting: under `COc1cccc(-c2nn3c(-c4ccccn4)nnc3s2)c1` stands more than 30 µM; under `COc1cc([N+](=O)[O-])ccc1-c1nn2c(-c3ccccn3)nnc2s1`, more than 30 µM.
In turn, `c1ccc(-c2nnc3sc(C4CCCCCC4)nn23)nc1` gave an EC50 of more than 30 µM.
The same measure, in the same setting: the value for `c1c[nH]c(-c2nn3c(-c4ccco4)nnc3s2)c1` [(6Z)-3-(2-furanyl)-6-(2-pyrrolylidene)-5H-[1,2,4]triazolo[3,4-b][1,3,4]thiadiazole] was more than 30 µM; that for `c1ccc(-c2nnc3sc(C4CCCCC4)nn23)nc1` [VU0364704-1] was more than 30 µM; that for `c1ccc(-c2nnc3sc(-c4ccc[nH]4)nn23)nc1` was more than 30 µM.
Still for that read-out and setting: the value for `c1coc(-c2nnc3sc(C4CCCCCC4)nn23)c1` [6-cycloheptyl-3-(2-furanyl)-[1,2,4]triazolo[3,4-b][1,3,4]thiadiazole] was more than 30 µM; that for `c1coc(-c2nnc3sc(C4CCCCC4)nn23)c1` [6-cyclohexyl-3-(2-furanyl)-[1,2,4]triazolo[3,4-b][1,3,4]thiadiazole] was more than 30 µM; that for `CCOc1cccc(-c2nn3c(-c4ccco4)nnc3s2)c1` [6-(3-ethoxyphenyl)-3-(2-furanyl)-[1,2,4]triazolo[3,4-b][1,3,4]thiadiazole] was more than 30 µM.
`COc1ccc(-c2nn3c(-c4ccccn4)nnc3s2)cc1OC` [6-(3,4-dimethoxyphenyl)-3-(2-pyridinyl)-[1,2,4]triazolo[3,4-b][1,3,4]thiadiazole] had an EC50 of more than 30 µM.
On the same count and under the same terms, under `c1csc(Cc2nn3c(-c4ccncc4)nnc3s2)c1` stands more than 30 µM.

Still in this experiment, the particulars now being: inactive by the depositor's call.
For `CCOc1cccc(-c2nn3c(-c4cccs4)nnc3s2)c1` [6-(3-ethoxyphenyl)-3-thiophen-2-yl-[1,2,4]triazolo[3,4-b][1,3,4]thiadiazole], the EC50 came to 1.1 µM.

The term EC50 denotes the midpoint of the concentration-response curve. A low value points to a more potent agent.
